A short description of series [1]: Drug interaction studies: change in pharmacokinetics of co-administered drug in the presence of elagolix. It counts as in vivo, human. The protocol:
Drug interaction studies were performed with elagolix and other drugs likely to be co-administered and with drugs commonly used as probes for pharmacokinetic interactions. Tables 8 and 9 summarize the pharmacokinetic effects when elagolix was co-administered with these drugs.

Series [2] is described as follows: Drug-drug interaction study: effect of multiple doses of elagolix sodium on pharmacokinetics of bupropion (CYP2B6 substrate) and OH-bupropion. The following applies: for t1/2: harmonic mean. The method, then: Subjects: Twenty four (24) adult premenopausal women in generally good health participated in this study.
Elagolix 300 mg BID (as 300 mg immediate release tablets) was administered in the morning and evening on days 1 through 14 in period 2. […] No food was consumed for 2 hours prior to the evening doses of elagolix continuing through 2 hours after. The doses of elagolix were separated by approximately 12 hours.
Individual PK parameters (peak concentration [Cmax] and area under the concentration-time curve [AUC]) were estimated using noncompartmental methods.
Central value ratios (90% confidence intervals) for Cmax, AUC, and metabolite to parent ratios (MPRs) (day 11, period 2 vs. day 1, period 1) were calculated to assess the DDIs. Safety was evaluated through assessment of adverse events, vital signs, electrocardiogram, and clinical laboratory tests.
Adverse events (AEs) were monitored throughout the DDI study. Additional safety evaluations included monitoring of physical examinations, vital signs, electrocardiogram variables, and clinical laboratory values were assessed

A short description of series [3]: Drug-drug interaction study: effect of multiple doses of elagolix sodium on pharmacokinetics of omeprazole (CYP2C19 substrate) and its metabolites. The following applies: for M:P AUCinf Ratio, Relative Bioavailability Point Estimate / M:P AUCt Ratio, Relative Bioavailability Point Estimate: Day 11 vs. Day 1; for AUCinf / AUCt / Cmax: geometric mean; for RAUCinf = metabolite-to-omeprazole AUCinf ratio / RAUCt = metabolite-to-omeprazole AUCt ratio / Tmax: median; for M:P AUCinf Ratio, Central Value Reference / M:P AUCt Ratio, Central Value Reference: Study Day 1: omeprazole 40 mg; for M:P AUCinf Ratio, Central Value Test / M:P AUCt Ratio, Central Value Test: Study Day 11: elagolix 300 mg BID + omeprazole 40 mg. The protocol: Subjects: Twenty adult premenopausal female subjects were enrolled in the study.
Beginning on Day 3, subjects received elagolix 300 mg BID under fasting conditions every day until Day 10. […] Doses of elagolix were separated by approximately 12 hours.
Testing was performed for CYP2C19 variants including the *2 (r54244285), *3 (r54986893), *4 (r528399504), *8 (r541291556), *10 (r56413438) and *12 (r555640102) alleles.
Safety was evaluated during confinement and at each study visit through adverse event monitoring, vital signs measurements, physical examinations, and routine laboratory tests.

Series [4] is described as follows: Drug interactions: effects of ORIAHNN on other drugs. The following applies: co-administration of ORIAHNN.
Series [5] can be described thus: Drug interactions: effects of ORILISSA on other drugs. Particulars: co-administration of ORILISSA
Where [6] appears, read: ethinyl estradiol 35 mcg and triphasic norgestimate 0.18/0.215/0.25 mg once daily, elagolix 150 mg once daily, N 21.
The mark [7] stands for this setting: Study Day 1, omeprazole 40 mg, harmonic mean.
Where [8] appears, read: Study Day 11, omeprazole 40 mg + elagolix 300 mg BID.
The mark [9] stands for this setting: norethindrone 0.35 mg once daily x 112 days, elagolix 150 mg once daily x 56 days, N 32.
The mark [10] stands for this setting: bupropion 150 mg + elagolix 300 mg BID (Day 11, Period 2), mean.
The mark [11] stands for this setting: bupropion 150 mg alone (Day 1, Period 1), mean.
The mark [12] stands for this setting: bupropion + elagolix (Day 11, Period 2), median.
[13] abbreviates: bupropion alone (Day 1, Period 1), median.
The mark [14] stands for this setting: single 150 mg bupropion, elagolix 300 mg twice daily.
[15] abbreviates: single 40 mg omeprazole, elagolix 300 mg twice daily.

Here are results for eight compounds from US20220257597A1, “Methods of Administering Elagolix” (AbbVie Inc., priority 2021, published 2022).

Regarding `C#C[C@]1(O)CC[C@H]2[C@@H]3CCC4=CC(=NO)CC[C@@H]4[C@H]3CC[C@@]21CC` (mixture of isomers) [Norelgestromin], in series [1] (setting [6]), the “Ratio (90% CI) AUC, co-administration with elagolix vs medication alone” value (shortened to “Ratio (90% CI) AUC, co-administration”) is recorded as 0.85 and the “Ratio (90% CI) Cmax, co-administration with elagolix vs medication alone” value (shortened to “Ratio (90% CI) Cmax, co-administration”) is listed as 0.87.

For the compound `CC(NC(C)(C)C)C(=O)c1cccc(Cl)c1.Cl` (racemic) [bupropion, (±)-1-(3-chlorophenyl)-2-[(1,1-dimethylethyl)amino]-1-propanone hydrochloride, reference compound], the “Cmax upon co-administration with elagolix, in words” value in series [2] is reported as “increased”. Also, in series [2] (elagolix 300 mg BID), the “increase in Cmax upon co-administration with elagolix” value was found to be 25%. Moreover, in series [2] (female, human, in vivo, 150 mg), the AUC(0-inf) amounted to 1130 ng·h/mL, the AUC(0-t) is 1090 ng·h/mL, the Cmax stood at 89.5 ng/mL and the Tmax was 4 h. For the same compound, the “changes in exposures when co-administered with elagolix, in words” value in series [1] (elagolix 300 mg twice daily) is “No clinically significant changes”.

For the compound `COc1ccc2nc([S+]([O-])Cc3ncc(CO)c(OC)c3C)[nH]c2c1` (centres unmarked) [5-hydroxyomeprazole], in series [3], the “M:P AUCinf Ratio, Relative Bioavailability Point Estimate” value is listed as 0.432; the “M:P AUCt Ratio, Relative Bioavailability Point Estimate” value is listed as 0.412; the “M:P AUCinf Ratio, Central Value Reference” value was 0.458; the “M:P AUCt Ratio, Central Value Reference” value amounted to 0.471. Further, in series [3], the “M:P AUCinf Ratio, Central Value Test” value was found to be 0.198 and the “M:P AUCt Ratio, Central Value Test” value is 0.194. Also, in series [3] (Study Day 1, omeprazole 40 mg), the AUCinf was 883 ng·h/mL, the AUCt was determined as 857 ng·h/mL, the Cmax is recorded as 195 ng/mL and the “RAUCinf = metabolite-to-omeprazole AUCinf ratio” value stood at 0.61. In addition, in series [3] (Study Day 1, omeprazole 40 mg), the “RAUCt = metabolite-to-omeprazole AUCt ratio” value is 0.65 and the Tmax is recorded as 2.0 h. For the same compound, the t1/2 in series [3] (setting [7]) came to 1.88 h. Besides, in series [3] (setting [8]), the AUCinf is 664 ng·h/mL, the AUCt is 643 ng·h/mL, the Cmax came to 134 ng/mL and the “RAUCinf = metabolite-to-omeprazole AUCinf ratio” value is 0.20. In series [3] (setting [8]), the “RAUCt = metabolite-to-omeprazole AUCt ratio” value was 0.20 and the Tmax was determined as 3.0 h. Moreover, the t1/2 in series [3] (Study Day 11, omeprazole 40 mg + elagolix 300 mg BID, harmonic mean) stood at 1.97 h. Further, in series [3] (all CYP2C19 genotype subgroups, elagolix co-administration), the “decrease in AUCinf in all genotype subgroups” value is reported as 20-30%. Also, in series [3] (elagolix 300 mg BID dosing), the “decrease in AUCinf” value is around 25%, the “decrease in Cmax” value is recorded as “approximately 30%” and the “decrease in M:P AUCinf ratio” value was 60%.

`C#C[C@]1(O)CC[C@H]2[C@@H]3CCC4=CC(=O)CC[C@@H]4[C@H]3CC[C@@]21C` [Norethindrone]: in series [1] (setting [9]), the “Ratio (90% CI) AUC, co-administration” value stood at 0.88 and the “Ratio (90% CI) Cmax, co-administration” value was 0.95.

As for `C#CC1(O)CC[C@H]2[C@@H]3CCC4=CC(=O)CC[C@@H]4[C@H]3CC[C@@]21CC` (some centres unmarked) [Norgestrel], in series [1] (setting [6]), the “Ratio (90% CI) AUC, co-administration” value was 0.92 and the “Ratio (90% CI) Cmax, co-administration” value is listed as 0.89.

Take `CC(NC(C)(C)CO)C(=O)c1cccc(Cl)c1` (centres unmarked) [OH-Bupropion]: the t1/2 in series [2] (bupropion 150 mg + elagolix 300 mg BID (Day 11, Period 2)) is on record as 20.5 h. Moreover, in series [2] (setting [10]), the AUCinf was determined as 17600 ng·h/mL, the AUCt was found to be 17000 ng·h/mL and the Cmax came to 429 ng/mL. Further, in series [2] (bupropion 150 mg + elagolix 300 mg BID (Day 11, Period 2), median, N = 24), the Tmax is 6.0 h. Further, the t1/2 in series [2] (bupropion 150 mg alone (Day 1, Period 1)) was found to be 24.7 h. In addition, in series [2] (setting [11]), the AUCinf amounted to 16700 ng·h/mL, the AUCt was found to be 15700 ng·h/mL and the Cmax amounted to 323 ng/mL. Further, the Tmax in series [2] (bupropion 150 mg alone (Day 1, Period 1), median, N = 24) was found to be 10.0 h. In series [2] (setting [12]), the “Metabolite to Parent AUCinf Ratio” value came to 15.9, the “Metabolite to Parent AUCt Ratio” value is 15.9 and the “Metabolite to Parent Cmax Ratio” value turned out to be 3.92. Moreover, in series [2] (setting [13]), the “Metabolite to Parent AUCinf Ratio” value was found to be 15.7, the “Metabolite to Parent AUCt Ratio” value came out at 15.4 and the “Metabolite to Parent Cmax Ratio” value is reported as 3.61. Moreover, the “Cmax upon co-administration with elagolix, in words” value in series [2] was “increased”. Also, in series [2] (elagolix 300 mg BID), the “changes in metabolite to parent ratios (OH-bupropion/bupropion) of Cmax and AUC” value is recorded as at most 12%; the “increase in Cmax upon co-administration with elagolix” value came out at 32%. Further, in series [2] (setting [14]), the “AUCinf ratio, co-administered with elagolix vs bupropion alone” value is “about 1.063” and the “Cmax ratio, co-administered with elagolix vs bupropion alone” value is recorded as “about 1.317”.

`COc1ccc2nc(S(=O)(=O)Cc3ncc(C)c(OC)c3C)[nH]c2c1` [omeprazole sulfone]: in series [3], the “M:P AUCinf Ratio, Relative Bioavailability Point Estimate” value is listed as 1.246; the “M:P AUCt Ratio, Relative Bioavailability Point Estimate” value is 1.497; the “M:P AUCinf Ratio, Central Value Reference” value stood at 0.825; the “M:P AUCt Ratio, Central Value Reference” value was 0.679. In addition, in series [3], the “M:P AUCinf Ratio, Central Value Test” value worked out at 1.028 and the “M:P AUCt Ratio, Central Value Test” value stood at 1.017. In series [3] (Study Day 1, omeprazole 40 mg), the AUCinf was 1400 ng·h/mL, the AUCt was determined as 1240 ng·h/mL, the Cmax was determined as 152 ng/mL and the “RAUCinf = metabolite-to-omeprazole AUCinf ratio” value is 0.85. Moreover, in series [3] (Study Day 1, omeprazole 40 mg), the “RAUCt = metabolite-to-omeprazole AUCt ratio” value came out at 0.76 and the Tmax stood at 3.5 h. Moreover, the t1/2 in series [3] (setting [7]) is 3.27 h. In series [3] (setting [8]), the AUCinf amounted to 3450 ng·h/mL, the AUCt was 3380 ng·h/mL, the Cmax was 411 ng/mL and the “RAUCinf = metabolite-to-omeprazole AUCinf ratio” value worked out at 0.99. Besides, in series [3] (setting [8]), the “RAUCt = metabolite-to-omeprazole AUCt ratio” value was found to be 0.97 and the Tmax came to 4.0 h. Besides, the “Cmax and AUCinf values upon co-administration with elagolix, in words” value in series [3] (co-administration with elagolix) is recorded as “increased”. In series [3] (elagolix 300 mg BID dosing), the “increase in AUCinf” value turned out to be 2.5 fold, the “increase in Cmax” value is 2.7 fold and the “increase in M:P AUCinf ratio” value was found to be 25%. Moreover, in series [3] (extensive and intermediate metabolizers, elagolix co-administration), the “increase in exposures (AUCinf) in CYP2C19 EM and IM subjects” value is recorded as around 3 fold. In series [3] (setting [15]), the “AUCinf ratio, co-administered with elagolix vs omeprazole alone” value was “about 2.55” and the “Cmax ratio, co-administered with elagolix vs omeprazole alone” value is on record as “about 2.70”.

For the compound `COc1ccc2[nH]c([S+]([O-])Cc3ncc(C)c(OC)c3C)nc2c1` (centres unmarked) [omeprazole, 5-methoxy-2-[[(4-methoxy3,5-dimethyl-2-pyridinyl)methyl]sulfinyl]-1H-benzimidazole, reference compound], the “Effect on Plasma Exposure of Concomitant Drug (direction of change in AUC)” value in series [4] and in series [5] was “↑ omeprazole” each time. The Tmax in series [3] (Study Day 1, omeprazole 40 mg) worked out at 2.0 h; in series [3] (setting [8]), 2.0 h. Further, in series [3] (female, human, in vivo), the t1/2 came to 1.57 h. Also, in series [3] (female, human, in vivo, 300 mg), the “increase in AUCinf” value is given as 1.8 fold. Moreover, the “increase in Cmax” value in series [3] (female, human, in vivo, 300 mg) came to 1.9 fold. The “Cmax and AUCinf values upon co-administration with elagolix, in words” value in series [3] (human, in vivo) is reported as “increased”.
